Experimental data reported in US20090275610A1, “TRICYCLIC OPIOID MODULATORS” (priority 2005, published 2009).
Like-named read-outs stand apart in the source and are kept apart here.

What was measured:
mu opioid receptor = target: T1, mu opioid receptor (Rattus norvegicus, UniProt P33535); assay: Rat brain mu opioid receptor binding assay; settings: rat forebrain membranes, [3H]DAMGO, 25° C., 2.5 h
T1 construct: the forebrains were homogenized in Tris buffer in a Teflon®-glass homogenizer; from tissue; host or cells: forebrain of male Wistar rats (particulate membrane preparation)
Experimental: Rat Brain Mu Opioid Receptor Binding Assay
(§1) Procedure: Male, Wistar rats (150-250 g, VAF, Charles River, Kingston, N.Y.) were killed by CO2, and their brains removed and placed immediately in ice cold Tris HCl buffer (50 mM, pH 7.4). The forebrains were separated from the remainder of the brain by a coronal transection, beginning dorsally at the colliculi and passing ventrally through the midbrain-pontine junction. After dissection, the forebrains were homogenized in Tris buffer in a Teflon®-glass homogenizer. The homogenate was diluted to a concentration of 1 g of forebrain tissue per 80 mL Tris and centrifuged at 39,000×g for 10 min. The pellet was resuspended in the same volume of Tris buffer containing 5 mM MgCl2 with several brief pulses from a Polytron homogenizer. This particulate preparation was used for the delta opioid binding assays.
(§2) Analysis: The data from the scintillation counter were used to calculate either the % inhibition compared to control binding (when only a single concentration of test compound was evaluated) or a Ki value (when a range of concentrations tested). Percent inhibition was calculated as: [(total dpm−test compound dpm)/(total dpm−nonspecific dpm)]*100. Kd and Ki values were calculated using GraphPad PRISM data analysis program.

delta opioid receptor = target: T2, delta opioid receptor (Rattus norvegicus, UniProt P33533); assay: Rat brain delta opioid receptor binding assay; settings: rat forebrain membranes, [3H]DPDPE or [3H]naltrindole, 25° C., 2.5 h
T2 construct: the forebrains were homogenized in Tris buffer in a Teflon®-glass homogenizer; from tissue; host or cells: forebrain of male Wistar rats (particulate membrane preparation)
Experimental: Rat Brain Delta Opioid Receptor Binding Assay
as §1
as §2, with “concentrations was” for “concentrations”

[1] = target: T3, delta opioid receptor (NG108-15 cell membranes) (Mus musculus, UniProt P32300); assay: [35S]GTPγS binding assay in NG108-15 cell membranes (delta opioid); assay type: biochemical; settings: delta GTPγS binding EC50 (nM)
T3 construct: NG108-15 cell membranes were purchased from Applied Cell Sciences (Rockville, Md.); host or cells: NG108-15 cell membranes (purchased)
Experimental: Functional Assay: [^35S]GTPγS Binding Assay in NG108-15 Cell Membranes (Delta Opioid)
Methods: NG108-15 cell membranes were purchased from Applied Cell Sciences (Rockville, Md.). A sample (8 mg/mL) of membrane protein suspended in 10 mM TRIS-HCl pH 7.2, 2 mM EDTA, 10% sucrose. Membranes were maintained at 4-8° C. A 1 mL volume of membranes was added into 10 mL cold binding assay buffer. The assay buffer contained 50 mM Tris, pH 7.6, 5 mM MgCl2, 100 mM NaCl, 1 mM DTT and 1 mM EGTA. The membrane suspension was homogenized twice with a Polytron, and centrifuged at 3000 rpm for 10 min. The supernatant was then centrifuged at 18,000 rpm for 20 min. Ten mL assay buffer was added into the pellet containing tube. The pellet and buffer were mixed with a Polytron.
Incubation procedure: The pellet membranes (75 μg/mL) were preincubated with SPA (10 mg/mL) at 25° C. for 45 min in the assay buffer. The SPA (5 mg/mL) coupled with membranes (37.5 μg/mL) was then incubated with 0.1 nM [^35S]GTPγS in the same Tris buffer containing 100 μM GDP in total volume of 200 μL. Increasing concentrations of receptor agonists were used to stimulate [^35S]-GTPγS binding. The basal binding was tested in the absence of agonists and non-specific binding was tested in the presence of 10 μM unlabeled GTPγS. The data were analyzed on a Packard Top Count.
% of Basal=(stimulated−non specific)*100/(basal−non specific).
EC50 values were calculated using GraphPad Prism.

[2] = rMOR (Ki, nM): Rat mu opioid receptor binding constant
[3] = rDOR (Ki, nM): Rat delta opioid receptor binding constant
[4] = read-out: rMOR (Ki, nM): Rat mu opioid receptor binding constant
[5] = read-out: rDOR (Ki, nM): Rat delta opioid receptor binding constant

T1 sequence (P33535 whole entry): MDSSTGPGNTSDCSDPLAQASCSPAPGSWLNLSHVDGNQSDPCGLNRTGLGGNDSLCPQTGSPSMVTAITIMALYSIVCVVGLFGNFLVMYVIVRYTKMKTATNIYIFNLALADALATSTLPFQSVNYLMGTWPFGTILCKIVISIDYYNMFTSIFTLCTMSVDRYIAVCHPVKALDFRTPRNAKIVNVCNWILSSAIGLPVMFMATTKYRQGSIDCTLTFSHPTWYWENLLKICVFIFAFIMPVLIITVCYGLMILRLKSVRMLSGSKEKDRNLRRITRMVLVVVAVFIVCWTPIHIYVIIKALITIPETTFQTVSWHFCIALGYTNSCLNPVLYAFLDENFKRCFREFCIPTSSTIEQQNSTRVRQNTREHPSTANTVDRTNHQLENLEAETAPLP
T2 sequence (P33533 whole entry): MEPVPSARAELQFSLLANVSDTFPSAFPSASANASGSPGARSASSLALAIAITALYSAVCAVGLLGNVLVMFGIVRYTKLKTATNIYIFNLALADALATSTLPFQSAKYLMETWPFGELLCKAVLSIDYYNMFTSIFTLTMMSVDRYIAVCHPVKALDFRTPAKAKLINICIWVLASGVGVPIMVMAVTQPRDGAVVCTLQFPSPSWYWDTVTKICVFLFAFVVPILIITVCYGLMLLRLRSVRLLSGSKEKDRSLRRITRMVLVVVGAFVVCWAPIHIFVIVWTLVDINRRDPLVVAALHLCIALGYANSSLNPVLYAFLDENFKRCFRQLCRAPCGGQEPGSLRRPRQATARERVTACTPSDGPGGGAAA
T3 sequence (P32300 whole entry): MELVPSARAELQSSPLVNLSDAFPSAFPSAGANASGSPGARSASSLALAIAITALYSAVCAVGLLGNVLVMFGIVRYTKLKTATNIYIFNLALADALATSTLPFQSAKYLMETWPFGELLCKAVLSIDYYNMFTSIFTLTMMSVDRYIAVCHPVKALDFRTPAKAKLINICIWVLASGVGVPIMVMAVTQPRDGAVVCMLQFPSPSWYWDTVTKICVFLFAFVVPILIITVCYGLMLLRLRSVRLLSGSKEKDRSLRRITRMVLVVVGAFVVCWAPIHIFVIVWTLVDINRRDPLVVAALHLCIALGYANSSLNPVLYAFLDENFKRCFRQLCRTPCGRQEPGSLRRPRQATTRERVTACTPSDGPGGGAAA

## O=C(N1C2CCC1CC(=C1c3ccccc3Oc3c(O)cccc31)C2)C(F)(F)F (single isomer, unassigned) [Cpd 5, 2,2,2-Trifluoro-1-[3-(4-hydroxy-xanthen-9-ylidene)-8-azabicyclo[3.2.1]oct-8-yl]-ethanone]
Mu opioid receptor; [2]
  Ki: 5620 nM
Delta opioid receptor; [3]
  Ki: 2110 nM

## O=C(N1C2CCC1CC(=C1c3ccccc3Oc3c(O)cccc31)C2)C(F)(F)F (single isomer, unassigned) [Cpd 6, 2,2,2-Trifluoro-1-[3-(4-hydroxy-xanthen-9-ylidene)-8-azabicyclo[3.2.1]oct-8-yl]-ethanone]
Mu opioid receptor; [2]
  Ki: > 10000 nM
Delta opioid receptor; [3]
  Ki: 8500 nM

## Oc1cccc2c1Oc1ccccc1C2=C1CC2CCC(C1)N2 (single isomer, unassigned) [Cpd 9, 9-(8-Azabicyclo[3.2.1]oct-3-ylidene)-9H-xanthen-4-ol]
Mu opioid receptor; [2]
  Ki: 63.6 nM
Delta opioid receptor; [3]
  Ki: 68.2 nM

## NC(=O)c1cccc2c1Oc1ccccc1C2=C1C[C@H]2CC[C@@H](C1)N2C(=O)C(F)(F)F (single isomer, unassigned) [Cpd 36, (+)-9-[8-(2,2,2-Trifluoroacetyl)-8-azabicyclo[3.2.1]oct-3-ylidene]-9H-xanthene-4-carboxylic acid amide]
Mu opioid receptor; [4]
  Ki: > 10000 nM
Delta opioid receptor; [5]
  Ki: 1790 nM

## NC(=O)c1cccc2c1Oc1ccccc1C2=C1C[C@H]2CC[C@@H](C1)N2C(=O)C(F)(F)F (single isomer, unassigned) [Cpd 38, (−)-9-[8-(2,2,2-Trifluoroacetyl)-8-azabicyclo[3.2.1]oct-3-ylidene]-9H-xanthene-4-carboxylic acid amide]
Mu opioid receptor; [4]
  Ki: > 10000 nM
Delta opioid receptor; [5]
  Ki: 6440 nM

## NC(=O)c1cccc2c1Oc1ccccc1C2=C1CC2CCC(C1)N2 (single isomer, unassigned) [Cpd 39, 9-(8-Azabicyclo[3.2.1]oct-3-ylidene)-9H-xanthene-4-carboxylic acid amide]
Mu opioid receptor; [2]
  Ki: 96.4 nM
[1]
  EC50: 1240 nM
Delta opioid receptor; [3]
  Ki: 31.9 nM

## N=C(NO)c1cccc2c1Oc1ccccc1C2=C1CC2CCC(C1)N2 (single isomer, unassigned) [Cpd 42, 9-(8-Aza-bicyclo[3.2.1]oct-3-ylidene)-N-hydroxy-9H-xanthene-4-carboxamidine]
Mu opioid receptor; [2]
  Ki: 56.5 nM
Delta opioid receptor; [5]
  Ki: 237 nM

## N=C(NO)c1cccc2c1Oc1ccccc1C2=C1CC2CCC(C1)N2 (single isomer, unassigned) [Cpd 43, 9-(8-Aza-bicyclo[3.2.1]oct-3-ylidene)-N-hydroxy-9H-xanthene-4-carboxamidine]
Mu opioid receptor; [4]
  Ki: > 10000 nM
Delta opioid receptor; [5]
  Ki: > 10000 nM

## O=C(Nc1ccccc1)c1cccc2c1Oc1ccccc1C2=C1CC2CCC(C1)N2 (single isomer, unassigned) [Cpd 47, 9-(8-Azabicyclo[3.2.1]oct-3-ylidene)-9H-xanthene-4-carboxylic acid phenylamide]
Mu opioid receptor; [2]
  Ki: 293 nM
Delta opioid receptor; [3]
  Ki: 250 nM

## Oc1cccc2c1Oc1ccccc1C2=C1CC2CCC(C1)N2Cc1cccnc1 (single isomer, unassigned) [Cpd 49, 9-(8-Pyridin-3-ylmethyl-8-azabicyclo[3.2.1]oct-3-ylidene)-9H-xanthen-4-ol]
Mu opioid receptor; [2]
  Ki: 443 nM
Delta opioid receptor; [3]
  Ki: 62.6 nM

## CN1C2CCC1CC(=C1c3ccccc3Oc3c(O)cccc31)C2 (single isomer, unassigned) [Cpd 52, 9-(8-Methyl-8-azabicyclo[3.2.1]oct-3-ylidene)-9H-xanthen-4-ol]
Mu opioid receptor; [2]
  Ki: 1320 nM
Delta opioid receptor; [3]
  Ki: 323 nM

## O=C(NCc1ccccc1)c1cccc2c1Oc1ccccc1C2=C1CC2CCC(C1)N2 (single isomer, unassigned) [Cpd 53, 9-(8-Azabicyclo[3.2.1]oct-3-ylidene)-9H-xanthene-4-carboxylic acid benzylamide]
Mu opioid receptor; [2]
  Ki: 2030 nM
Delta opioid receptor; [3]
  Ki: 1130 nM

## O=C(NCCc1ccccc1)c1cccc2c1Oc1ccccc1C2=C1CC2CCC(C1)N2 (single isomer, unassigned) [Cpd 55, 9-(8-Azabicyclo[3.2.1]oct-3-ylidene)-9H-xanthene-4-carboxylic acid phenethylamide]
Mu opioid receptor; [2]
  Ki: 200 nM
Delta opioid receptor; [3]
  Ki: 100 nM

## Oc1cccc2c1Oc1ccccc1C2=C1CC2CCC(C1)N2Cc1ccoc1 (single isomer, unassigned) [Cpd 57, 9-(8-Furan-3-ylmethyl-8-azabicyclo[3.2.1]oct-3-ylidene)-9H-xanthen-4-ol]
Mu opioid receptor; [2]
  Ki: 36.5 nM
Delta opioid receptor; [3]
  Ki: 246 nM

## Oc1cccc2c1Oc1ccccc1C2=C1CC2CCC(C1)N2Cc1ccccn1 (single isomer, unassigned) [Cpd 59, 9-(8-Pyridin-2-ylmethyl-8-azabicyclo[3.2.1]oct-3-ylidene)-9H-xanthen-4-ol]
Mu opioid receptor; [2]
  Ki: 0.39 nM
Delta opioid receptor; [3]
  Ki: 0.07 nM

## Oc1cccc2c1Oc1ccccc1C2=C1CC2CCC(C1)N2Cc1ccccn1 (single isomer, unassigned) [Cpd 60, 9-(8-Pyridin-2-ylmethyl-8-azabicyclo[3.2.1]oct-3-ylidene)-9H-xanthen-4-ol]
Mu opioid receptor; [2]
  Ki: 0.01 nM
Delta opioid receptor; [3]
  Ki: 0.01 nM

## COc1cccc2c1Oc1ccccc1C2=C1CC2CCC(C1)N2 [Cpd 1]
Mu opioid receptor; [4]
  Ki: 1790 nM
Delta opioid receptor; [5]
  Ki: 3800 nM

## COC(=O)c1cccc2c1Oc1ccccc1C2=C1CC2CCC(C1)N2C(=O)C(F)(F)F [Cpd 7, 9-[8-(2,2,2-Trifluoroacetyl)-8-azabicyclo[3.2.1]oct-3-ylidene]-9H-xanthene-4-carboxylic acid methyl ester]
Mu opioid receptor; [2]
  Ki: > 10000 nM
Delta opioid receptor; [3]
  Ki: > 10000 nM

## CN(C)C(=O)c1cccc2c1Oc1ccccc1C2=C1CC2CCC(C1)N2 [Cpd 11, 9-(8-Azabicyclo[3.2.1]oct-3-ylidene)-9H-xanthene-4-carboxylic acid dimethylamide]
Mu opioid receptor; [2]
  Ki: 471 nM
Delta opioid receptor; [3]
  Ki: 3110 nM

## CN(C)CCNC(=O)c1cccc2c1Oc1ccccc1C2=C1CC2CCC(C1)N2 [Cpd 15, 9-(8-Azabicyclo[3.2.1]oct-3-ylidene)-9H-xanthene-4-carboxylic acid (2-dimethylaminoethyl)-amide]
Mu opioid receptor; [2]
  Ki: 336 nM
Delta opioid receptor; [3]
  Ki: 1420 nM

## CN1C2CCCC1CC(=C1c3ccccc3Oc3c(O)cccc31)C2 [Cpd 17, 9-(9-Methyl-9-azabicyclo[3.3.1]non-3-ylidene)-9H-xanthen-4-ol]
Mu opioid receptor; [2]
  Ki: 221 nM
Delta opioid receptor; [3]
  Ki: 132 nM

## CN1CCC(=C2c3ccccc3Oc3c(O)cccc32)CC1 [Cpd 18, 9-(1-Methyl-piperidin-4-ylidene)-9H-xanthen-4-ol]
Mu opioid receptor; [2]
  Ki: 4610 nM
Delta opioid receptor; [3]
  Ki: 330 nM

## Oc1cccc2c1Oc1ccccc1C2=C1CC2CCC(C1)N2Cc1csc2ccccc12 [Cpd 33]
Mu opioid receptor; [4]
  Ki: 168 nM
Delta opioid receptor; [5]
  Ki: 137 nM

## Oc1cccc2c1Oc1ccccc1C2=C1CC2CCC(C1)N2Cc1cccc2cnccc12 [Cpd 35]
Mu opioid receptor; [4]
  Ki: 286 nM
Delta opioid receptor; [5]
  Ki: 180 nM

## Clc1ccc(Nc2cccc3c2Oc2ccccc2C3=C2CC3CCC(C2)N3)cc1 [Cpd 61, [9-(8-Azabicyclo[3.2.1]oct-3-ylidene)-9H-xanthen-4-yl]-(4-chlorophenyl)-amine]
Mu opioid receptor; [2]
  Ki: 3160 nM
Delta opioid receptor; [3]
  Ki: 395 nM

## c1cncc(Nc2cccc3c2Oc2ccccc2C3=C2CC3CCC(C2)N3)c1 [Cpd 62, [9-(8-Azabicyclo[3.2.1]oct-3-ylidene)-9H-xanthen-4-yl]-pyridin-3-yl-amine]
Mu opioid receptor; [2]
  Ki: 159 nM
Delta opioid receptor; [3]
  Ki: 108 nM

## c1ccc(Nc2cccc3c2Oc2ccccc2C3=C2CC3CCC(C2)N3)cc1 [Cpd 64, [9-(8-Azabicyclo[3.2.1]oct-3-ylidene)-9H-xanthen-4-yl]-phenylamine]
Mu opioid receptor; [2]
  Ki: 2420 nM
Delta opioid receptor; [3]
  Ki: 862 nM
